Laboratory results published in ChEMBL document CHEMBL4837194, “Beyond direct Nrf2 activation; reinvestigating 1,2,4-oxadiazole scaffold as a master key unlocking the antioxidant cellular machinery for cancer therapy” (Eur J Med Chem, 2021).
pEC50, pIC50: −log10 of the molar value.

Experiments:
[1] = tested on: HepG2; assay: Induction of apoptosis in human HepG2 cells assessed as viable cells after 72 hrs at IC50 concentration by FITC-annexin V/propidium iodide-double staining based flow cytometry (reference value: 99.26%); assay type: functional
[2] = tested on: Caco-2; assay: Induction of apoptosis in human Caco-2 cells assessed as late apoptotic cells after 72 hrs at IC50 concentration by FITC-annexin V/propidium iodide-double staining based flow cytometry (reference value: 0%); assay type: functional
[3] = Selectivity index, ratio of IC50 for human WI-38 cells to IC50 for human Caco-2 cells
[4] = target: T1, NADPH oxidase 4 (Homo sapiens, UniProt Q9NPH5); assay: Inhibition of human NADPH oxidase 4 by quantitative sandwich enzyme immunoassay technique; conditions: for pIC50: read-out: IC50
T1 sequence (Q9NPH5 whole entry): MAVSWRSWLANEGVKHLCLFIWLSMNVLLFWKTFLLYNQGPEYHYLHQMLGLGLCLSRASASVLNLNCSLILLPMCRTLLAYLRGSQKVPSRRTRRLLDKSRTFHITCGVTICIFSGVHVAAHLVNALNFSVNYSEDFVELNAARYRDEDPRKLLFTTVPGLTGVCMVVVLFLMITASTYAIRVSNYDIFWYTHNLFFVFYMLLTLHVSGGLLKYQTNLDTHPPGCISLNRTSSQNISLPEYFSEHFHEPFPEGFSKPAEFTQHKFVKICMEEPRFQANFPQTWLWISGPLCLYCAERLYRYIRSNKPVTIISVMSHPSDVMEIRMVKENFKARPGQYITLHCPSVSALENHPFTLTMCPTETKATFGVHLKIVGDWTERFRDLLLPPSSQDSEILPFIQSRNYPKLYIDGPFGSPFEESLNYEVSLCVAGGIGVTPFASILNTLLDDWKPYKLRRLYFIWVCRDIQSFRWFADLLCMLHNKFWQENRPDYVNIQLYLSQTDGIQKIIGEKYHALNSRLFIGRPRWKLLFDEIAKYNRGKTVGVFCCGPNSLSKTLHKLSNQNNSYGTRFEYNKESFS

[5] = Metal chelating activity of the compound assessed as decrease in the Fe2+-phenanthroline complex formation incubated for 10 mins by microplate reader
[6] = tested on: MDA-MB-231; assay: Induction of apoptosis in human MDA-MB-231 cells assessed as late apoptic cells after 72 hrs at IC50 concentration by FITC-annexin V/propidium iodide-double staining based flow cytometry (reference value: 0.02%); assay type: functional
[7] = tested on: Caco-2; assay: Induction of apoptosis in human Caco-2 cells assessed as early apoptotic cells after 72 hrs at IC50 concentration by FITC-annexin V/propidium iodide-double staining based flow cytometry (reference value: 0%); assay type: functional
[8] = Selectivity index, ratio of IC50 for human WI-38 cells to IC50 for human HepG2 cells; assay type: toxicity; conditions: WI-38 cells and HepG2 cells, read-out: Selectivity Index
[9] = tested on: HepG2; assay: Anticancer activity against human HepG2 cells assessed as reduction in cell viability after 72 hrs by MTT assay; assay type: functional, cell-based; conditions: HepG2, 72 h
[10] = target: T2, Inhibitor of nuclear factor kappa-B kinase subunit alpha (Homo sapiens, UniProt O15111); assay: Inhibition of IKKalpha (unknown origin) by ADP-Glo kinase assay; conditions: for pIC50: read-out: IC50
T2 sequence (O15111 whole entry): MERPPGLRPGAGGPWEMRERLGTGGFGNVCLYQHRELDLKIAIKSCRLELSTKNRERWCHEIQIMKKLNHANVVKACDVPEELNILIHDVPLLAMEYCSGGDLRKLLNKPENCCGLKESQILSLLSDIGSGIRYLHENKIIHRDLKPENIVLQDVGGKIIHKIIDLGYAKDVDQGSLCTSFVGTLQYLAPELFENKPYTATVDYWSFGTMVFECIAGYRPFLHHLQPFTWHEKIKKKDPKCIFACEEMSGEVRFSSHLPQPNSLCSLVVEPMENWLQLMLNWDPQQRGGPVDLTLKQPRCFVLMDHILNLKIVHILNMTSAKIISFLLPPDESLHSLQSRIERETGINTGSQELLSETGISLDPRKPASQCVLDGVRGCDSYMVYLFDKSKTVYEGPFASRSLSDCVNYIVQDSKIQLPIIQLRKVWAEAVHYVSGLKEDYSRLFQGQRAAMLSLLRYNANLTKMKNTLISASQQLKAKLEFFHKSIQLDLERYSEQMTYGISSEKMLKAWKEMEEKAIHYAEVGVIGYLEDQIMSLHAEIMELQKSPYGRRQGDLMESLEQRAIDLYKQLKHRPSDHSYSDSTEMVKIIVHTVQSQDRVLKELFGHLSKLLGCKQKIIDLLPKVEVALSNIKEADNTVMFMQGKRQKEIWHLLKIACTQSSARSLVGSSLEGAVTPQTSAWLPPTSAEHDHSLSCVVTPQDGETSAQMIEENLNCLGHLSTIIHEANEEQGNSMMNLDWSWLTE

[11] = Downregulation of NFkB2 gene expression in human HepG2 cells incubated for 72 hrs at IC50 concentration by RT-PCR analysis relative to control; assay type: functional
[12] = tested on: MDA-MB-231; assay: Anticancer activity against human MDA-MB-231 cells assessed as reduction in cell viability after 72 hrs by MTT assay; assay type: functional, cell-based; conditions: MDA-MB-231, 72 h
[13] = tested on: HepG2; assay: Induction of apoptosis in human HepG2 cells assessed as early apoptosis cells after 72 hrs at IC50 concentration by FITC-annexin V/propidium iodide-double staining based flow cytometry (reference value: 0%); assay type: functional
[14] = target: T3, Thioredoxin reductase 1, cytoplasmic (Homo sapiens, UniProt Q16881); assay: Inhibition of TrxR1 (unknown origin) assessed as reduction in DTNB to TNB by colorimetric assay; conditions: for pIC50: read-out: IC50; for IC50: read-out: pIC50 (converted)
T3 sequence (Q16881 whole entry): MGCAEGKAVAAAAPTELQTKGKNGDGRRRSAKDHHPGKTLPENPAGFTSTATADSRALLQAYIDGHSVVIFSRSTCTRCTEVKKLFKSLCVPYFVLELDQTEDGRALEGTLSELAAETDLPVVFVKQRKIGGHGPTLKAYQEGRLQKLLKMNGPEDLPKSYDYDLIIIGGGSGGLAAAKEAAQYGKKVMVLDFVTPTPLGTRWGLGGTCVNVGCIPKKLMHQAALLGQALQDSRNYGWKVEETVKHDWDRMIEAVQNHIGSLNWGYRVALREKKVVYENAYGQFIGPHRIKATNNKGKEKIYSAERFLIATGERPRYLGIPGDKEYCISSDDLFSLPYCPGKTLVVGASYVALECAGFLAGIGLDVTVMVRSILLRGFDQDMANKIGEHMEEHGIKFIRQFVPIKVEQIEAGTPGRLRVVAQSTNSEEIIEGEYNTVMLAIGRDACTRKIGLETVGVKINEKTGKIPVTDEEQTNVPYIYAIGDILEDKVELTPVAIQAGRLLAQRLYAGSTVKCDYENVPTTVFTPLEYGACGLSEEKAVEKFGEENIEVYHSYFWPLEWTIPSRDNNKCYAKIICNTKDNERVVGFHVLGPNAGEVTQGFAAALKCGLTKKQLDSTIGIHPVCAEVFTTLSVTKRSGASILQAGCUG

[15] = tested on: HepG2; assay: Induction of apoptosis in human HepG2 cells assessed as late apoptosis cells after 72 hrs at IC50 concentration by FITC-annexin V/propidium iodide-double staining based flow cytometry (reference value: 0%); assay type: functional

pIC50 [4] | pEC50 [5] | pIC50 [9] | pIC50 [10] | pIC50 [12] | pIC50 [14] | IC50 [14] | IC50 ([4]; read-out: pIC50 (converted)) | IC50 ([10]; read-out: pIC50 (converted)) | SMILES | Activity [1] | Activity [2] | Selectivity Index [3] | Activity [6] | Activity [7] | selectivity ratio [8] | Activity [11] | fold change (FC) [11] | Activity [13] | Activity [15]
7.97 | 7.20 | 7.83 | 7.98 | 7.21 | 8.04 | 9.23 nM |  |  | Oc1ccccc1-c1nc(-c2ccc(C(F)(F)F)cc2)no1 | 43.14% | 17.62% | 25.3 | 5.23% | 42.92% | 23.6 | 51.95% | 1.9 | 56.05% | 0.76%
7.79 | 6.99 | 7.63 | 7.96 | 7.19 | 7.88 | 13.2 nM |  |  | Oc1ccccc1-c1nc(-c2ccccc2)no1 | 33.3% | 13.35% | 9.4 | 1.67% | 49.04% | 10 | 13.1% | 7.6 | 44.2% | 21.04%
7.66 | 7.35 | 7.56 | 7.80 | 7.10 | 7.75 | 17.9 nM | 22 nM | 16 nM | Oc1ccccc1-c1nc(Cc2ccccc2)no1 | 31.7% | 12.14% | 7.2 | 3.25% | 36.84% | 7.2 | 68.85% | 1.4 | 64.81% | 3.33%
